Test results reported in PMC11571207, “Stereorandomized Oncocins with Preserved Ribosome Binding and Antibacterial Activity” (Journal of Medicinal Chemistry, 2024).
Read-outs that look alike come from different tables or passages of the source. No end group written: not given here.

What was measured:
[1] = tested on: P. aeruginosa PA14 4.18 (pmrB); conditions: for MIC P. aeruginosa PA14 4.18: supplement CSV
[2] = tested on: human red blood cells; test: Hemolysis assay, minimum hemolytic concentration
[3] = tested on: P. aeruginosa ZEM-1A; test: microbe, parasite or virus in culture
How it was run: (§1)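 Minimal inhibitory concentrations come from broth microdilution in MH medium, with a top peptide concentration of 64 μg/mL halved serially.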

[4] = tested on: P. aeruginosa PA14 2P4 (pmrB); test: microbe, parasite or virus in culture; conditions: for MIC P. aeruginosa PA14 2P4: supplement CSV
How it was run: as §1

[5] = tested on: E. cloacae; test: microbe, parasite or virus in culture; conditions: for MIC E. cloacae: supplement CSV
How it was run: as §1

[6] = tested on: K. pneumoniae OXA-48; test: microbe, parasite or virus in culture; conditions: for MIC K. pneumoniae OXA-48: supplement CSV
How it was run: as §1

[7] = tested on: P. aeruginosa ZEM9A; test: microbe, parasite or virus in culture; conditions: for MIC P. aeruginosa ZEM9A: supplement CSV
How it was run: as §1

[8] = tested on: P. aeruginosa PA14; test: microbe, parasite or virus in culture; conditions: for MIC P. aeruginosa PA14: supplement CSV
How it was run: as §1

[9] = tested on: E. coli W3110; test: microbe, parasite or virus in culture; conditions: for MIC E. coli W3110: supplement CSV
How it was run: (§2)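 Read-out was visible growth after MTT addition, the MIC being the lowest inhibitory peptide concentration. Bacteria grown to log phase in LB were exposed in MH medium to peptide from 64 μg/mL in twofold dilutions for 15-18h at 37°C.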

[10] = tested on: K. pneumoniae NCTC 418; test: microbe, parasite or virus in culture; conditions: for MIC K. pneumoniae NCTC418: supplement CSV
How it was run: as §2

[11] = tested on: A. baumannii ATCC19606; test: microbe, parasite or virus in culture; conditions: for MIC A. baumannii ATCC19606: supplement CSV
How it was run: as §2

[12] = tested on: P. aeruginosa PAO1; test: microbe, parasite or virus in culture; conditions: for MIC P. aeruginosa PAO1: supplement CSV
How it was run: as §2

[13] = tested on: S. aureus COL (MRSA); test: microbe, parasite or virus in culture; conditions: for MIC S. aureus COL (MRSA): supplement CSV
How it was run: as §2

[14] = polymyxin B resistant strain, 12.5% MHB pH 7.4, 16–20 h at 37 °C
[15] = polymyxin B resistant strain, full MHB pH 7.4, 16–20 h at 37 °C

In the case of “VDKPPYLPRPRPPRRIYNR [sr9Cterm-Onc] (VDKPPYLPRPRPPRRIYNR-NH2; also: residues 11-19 stereorandomized (1:1 L/D mixture))”, the “MIC P. aeruginosa PA14 4.18 (pmrB), 12.5% MHB” value [1, 14] is reported as 8 µg/mL, the “MIC P. aeruginosa PA14 4.18 (pmrB), full MHB” value [1, 15] is reported as 64 µg/mL and the “MIC P. aeruginosa PA14 4.18” value ([1]; 12.5% MH pH 7.4) is reported as 8 µg/mL. For the same sequence, the “MIC P. aeruginosa PA14 4.18” value ([1]; full MH pH 7.4) was 64 µg/mL, the “Haemolysis on hRBC, MHC” value ([2]; 2.5% human red blood cells (final) in 10 mM phosphate, 150 mM NaCl, pH 7.4, 25 °C, 4 h, visual inspection) was >1000 µg/mL and the “MHC human red blood cells” value ([2]; supplement CSV) was >1000 µg/mL. The “MIC P. aeruginosa ZEM-1A, 12.5% MHB” value ([3]; clinical isolate, 12.5% MHB pH 7.4, 16–20 h at 37 °C, cells marked c: single measurement (in duplicates)) was 4 to 8 µg/mL, the “MIC P. aeruginosa ZEM-1A, full MHB” value ([3]; clinical isolate, full MHB pH 7.4, 16–20 h at 37 °C, cells marked c: single measurement (in duplicates)) was 64 µg/mL and the “MIC P. aeruginosa ZEM-1A” value ([3]; supplement CSV, 12.5% MH pH 7.4) was 4 to 8 µg/mL. For the same sequence, the “MIC P. aeruginosa PA14 2P4 (pmrB), 12.5% MHB” value [4, 14] was 4 µg/mL, the “MIC P. aeruginosa PA14 2P4 (pmrB), full MHB” value [4, 15] was > 64 µg/mL and the “MIC P. aeruginosa PA14 2P4” value ([4]; 12.5% MH pH 7.4) was 4 µg/mL. For the same sequence, the “MIC P. aeruginosa PA14 2P4” value ([4]; full MH pH 7.4) was >64 µg/mL, the “MIC E. cloacae, 12.5% MHB” value ([5]; 12.5% MHB pH 7.4, 16–20 h at 37 °C) was 1 µg/mL and the “MIC E. cloacae, full MHB” value ([5]; full MHB pH 7.4, 16–20 h at 37 °C) was 32 µg/mL. For the same sequence, the “MIC E. cloacae” value ([5]; 12.5% MH pH 7.4) was 1 µg/mL, the “MIC E. cloacae” value ([5]; full MH pH 7.4) was 32 µg/mL and the “MIC K. pneumoniae OXA-48, 12.5% MHB” value ([6]; carbapenem-resistant, 12.5% MHB pH 7.4, 16–20 h at 37 °C) was 4 µg/mL. The “MIC K. pneumoniae OXA-48, full MHB” value ([6]; carbapenem-resistant, full MHB pH 7.4, 16–20 h at 37 °C) was 32 µg/mL, the “MIC K. pneumoniae OXA-48” value ([6]; 12.5% MH pH 7.4) was 4 µg/mL and the “MIC K. pneumoniae OXA-48” value ([6]; full MH pH 7.4) was 32 µg/mL. The “MIC P. aeruginosa ZEM9A, 12.5% MHB” value ([7]; clinical isolate, 12.5% MHB pH 7.4, 16–20 h at 37 °C) was 8 µg/mL, the “MIC P. aeruginosa ZEM9A, full MHB” value ([7]; clinical isolate, full MHB pH 7.4, 16–20 h at 37 °C) was > 64 µg/mL and the “MIC P. aeruginosa ZEM9A” value ([7]; 12.5% MH pH 7.4) was 8 µg/mL. The “MIC P. aeruginosa ZEM9A” value ([7]; full MH pH 7.4) was >64 µg/mL, the “MIC P. aeruginosa PA14, 12.5% MHB” value ([8]; 12.5% MHB pH 7.4, 16–20 h at 37 °C, two different duplicate MIC determinations) was 8 µg/mL and the “MIC P. aeruginosa PA14, full MHB” value ([8]; full MHB pH 7.4, 16–20 h at 37 °C, two different duplicate MIC determinations) was > 64 µg/mL. The “MIC P. aeruginosa PA14” value ([8]; 12.5% MH pH 7.4) was 8 µg/mL, the “MIC P. aeruginosa PA14” value ([8]; full MH pH 7.4) was >64 µg/mL and the “MIC E. coli, 12.5% MHB” value ([9]; E. coli W3110, 12.5% Müller–Hinton medium, 16–20 h at 37 °C, broth microdilution) was 4 µg/mL. For the same sequence, the “MIC E. coli, Full MHB” value ([9]; E. coli W3110, full Müller–Hinton medium, 16–20 h at 37 °C, broth microdilution) was 8 µg/mL, the “MIC E. coli W3110” value ([9]; 12.5% MH pH 7.4) was 4 µg/mL and the “MIC E. coli W3110” value ([9]; full MH pH 7.4) was 8 µg/mL. The “MIC K. pneumoniae, 12.5% MHB” value ([10]; K. pneumoniae NCTC 418, 12.5% Müller–Hinton medium, 16–20 h at 37 °C) was 4 / 4 μg/mL, the “MIC K. pneumoniae, Full MHB” value ([10]; K. pneumoniae NCTC 418, full Müller–Hinton medium, 16–20 h at 37 °C) was 4 / 4 μg/mL and the “MIC K. pneumoniae NCTC418” value ([10]; 12.5% MH pH 7.4) was 4 µg/mL. The “MIC K. pneumoniae NCTC418” value ([10]; full MH pH 7.4) was 4 µg/mL, the “MIC A. baumannii, 12.5% MHB” value ([11]; A. baumannii ATCC19606, 12.5% Müller–Hinton medium, 16–20 h at 37 °C) was 4 µg/mL and the “MIC A. baumannii, Full MHB” value ([11]; A. baumannii ATCC19606, full Müller–Hinton medium, 16–20 h at 37 °C) was 32 µg/mL. For the same sequence, the “MIC A. baumannii ATCC19606” value ([11]; 12.5% MH pH 7.4) was 4 µg/mL, the “MIC A. baumannii ATCC19606” value ([11]; full MH pH 7.4) was 32 µg/mL and the “MIC P. aeruginosa, 12.5% MHB” value ([12]; P. aeruginosa PAO1, 12.5% Müller–Hinton medium, 16–20 h at 37 °C) was 8 µg/mL. The “MIC P. aeruginosa, Full MHB” value ([12]; P. aeruginosa PAO1, full Müller–Hinton medium, 16–20 h at 37 °C) was 64 µg/mL, the “MIC P. aeruginosa PAO1” value ([12]; 12.5% MH pH 7.4) was 8 µg/mL and the “MIC P. aeruginosa PAO1” value ([12]; full MH pH 7.4) was 64 µg/mL. For the same sequence, the “MIC S. aureus, 12.5% MHB” value ([13]; S. aureus COL (MRSA), 12.5% Müller–Hinton medium, 16–20 h at 37 °C) was 32 µg/mL, the “MIC S. aureus, Full MHB” value ([13]; S. aureus COL (MRSA), full Müller–Hinton medium, 16–20 h at 37 °C) was > 64 µg/mL and the “MIC S. aureus COL (MRSA)” value ([13]; 12.5% MH pH 7.4) was 32 µg/mL. The “MIC S. aureus COL (MRSA)” value ([13]; full MH pH 7.4) was >64 µg/mL.
